# Measurements from publication PMC11480511 (Scientific Reports, 2024).
# Like-named read-outs stand apart in the source and are kept apart here.
# Legend:
# [1] = system: MDA-MB-231 triple negative breast cancer cell line; design: method as in earlier work; conditions: cited from earlier work
# [2] = system: E. coli ATCC 25,922; assay: Antibacterial screening, agar cup diffusion method; assay type: cell-based; conditions: Escherichia coli, ATCC25, Gram –ve strain; read-out: Minimum inhibitory concentrations (MIC, µM) E. coli ATCC 25,922
# Description: (§7) Anti-bacterial activity of the recently synthesized compounds 3a-k was evaluated at AUMC (Assiut University Mycological Centre), Assiut, Egypt. Assays were done against Gram-negative strains of K. pneumoniae (ATCC 100310, E. coli (ATCC 25922), Pseudomonas aeruginosa (ATCC 27853) and the Gram-positive S. aureus (ATCC 6538) strain utilizing standard agar cup diffusion method. The isolates from the four bacterial species examined were kept in TSB (Trypticase Soya Broth, Becton and Dickinson) with 10% glycerol at -70 °C and then subcultured on TSA (Trypticase Soya Agar, Becton and Dickinson) and TSB for 24 h at 37 °C former to inoculation. Bacterial isolates were then plated on sterile petri plates with 1 × 10^8 CFU/mL (0.5 McFarland turbidity) and 20 mL of Mueller Hinton Agar media (Oxoid) was then loaded. To ensure that the microorganisms were evenly dispersed, the plates were gently rotated before being left to harden on a level surface. Four equally spaced spherical-shaped wells (10 mm diameter) were painstakingly drilled using a sterilized cork bore after media solidification. All tested compounds under test underwent two-fold serial dilutions in a sequential manner. Three replications of 100 µL of each concentration were added to a well using a micropipette. Plates were then incubated for 24-hour at 37 °C. The average of the inhibition zones was then calculated. To determine the MICs, the natural logarithm of each diluted test substance’s concentration was plotted against the average area of the related inhibition zone. Following that, a regression line was created and the intercept on the ‘ln concentration” axis was determined, and the antilogarithm was calculated to indicate the MIC value[34],[63].
# [3] = system: P. aeruginosa ATCC 27,853; assay: Antibacterial screening, agar cup diffusion method; assay type: cell-based; conditions: Pseudomonas aeruginosa, ATCC27; Gram –ve strain; read-out: Minimum inhibitory concentrations (MIC, µM) P. aeruginosa ATCC 27,853
# Description: as §7
# [4] = system: S. aureus ATCC 6538; assay: Antibacterial screening, agar cup diffusion method; assay type: cell-based; conditions: Staphylococcus aureus, ATCC6538; Gram + ve strain; read-out: Minimum inhibitory concentrations (MIC, µM) S. aureus ATCC 6538
# Description: as §7
# [5] = system: Jurkat cells; conditions: cited from earlier work
# [6] = system: K. pneumoniae ATCC 10,031; assay: Antibacterial screening, agar cup diffusion method; assay type: cell-based; conditions: read-out: Minimum inhibitory concentrations (MIC, µM) K. pneumoniae ATCC 10,031
# Description: as §7
# [7] = system: A498 renal cancer cell line; assay: cells; conditions: Homo sapiens
# [8] = system: PARP-1; assay: Western blot of protein expression in LOX IMVI cells; assay type: cell-based, human; conditions: control = 1
# Description: (§1) To evaluate the expression level of the apoptosis modulatory markers Bax, caspase 3 and PARP-1, western blot was performed as formerly described. Three different groups of LOX IMVI cells were permitted to grow to reach 70–80% confluence in […] flasks. The first group of LOX IMVI cells was treated with compound 3i. […] The media was taken out after 48 h, and cells underwent three rounds of ice-cold PBS washing. RIPA lysis buffer [consisting of Tris-HCl pH 7.6 (25 mM), NaCl (150 mM), EDTA (5 mM), NP-40 or Triton X-100 (1%), sodium deoxycholate (1%), SDS1 (1%)] with the proper phosphatase and a protease inhibitor was used to create the whole-cell lysate for 30 min. After centrifuging the mixture at 12,000 rpm for 20 min and sonicating it for five minutes, the supernatant was collected, split into aliquots, and kept at -80 °C. The Biuret method was used to determine protein content[27],[28]. Proteins in each matched cell lysate were denatured in 2 Laemmli buffer containing 5% β--mercaptoethanol at 95 °C for 5 min. For SDS-PAGE electrophoresis, 20 µg of protein per lane were loaded at 100 volts through a 6% stacking gel, then at 125 volts through a 10% resolving gel for around 2 h, and then transferred to a PVDF membrane using a semidry transfer apparatus (made by Cleaver Scientific) for 25 min. The PVDF membrane was first incubated for one hour at 4 °C in TBS buffer containing 0.1% Tween (TBST) and 5% fat-free milk, then overnight at 4 °C with monoclonal anti-Bax, anti-PARP-1, and anti-caspase-3 as primary antibodies (Cell Signalling Technology) at a dilution of 1:500. Membranes were first treated overnight, then three times washed in TBST buffer, then incubated at room temperature for 60 min with the corresponding HRP (horse radish peroxidase)-linked secondary antibodies (Dako). Then the substrate for the chemiluminescent Western ECL (Perkin Elmer, Waltham, MA) was added to the blot as described by the manufacturer by incubating the membranes with equal volumes of ECL solution A and ECL solution B for 1 min.
# [9] = system: active caspase-3; assay: as above; assay type: cell-based, human; conditions: control = 1
# Description: as §1
# [10] = system: Bax; assay: as above; assay type: cell-based, human; conditions: control = 1
# Description: as §1
# [11] = system: melanoma LOX IMVI cell line; assay: Annexin V-FITC/PI apoptosis and necrosis assay; assay type: cell-based, human; conditions: LOX IMVI treated with IC50 concentration
# Description: Following the manufacturer’s instructions, the Annexin V-FITC Apoptosis Detection Kit (Bio Vision Research Products, USA) was used to analyze cell apoptosis. Briefly, 500 µL of 1X Binding buffer was used to resuspend 1-5 × 10^5 cells that had been harvested by centrifugation. Propidium iodide (PI, 50 mg/ml) and Annexin V-FITC, each administered in 5 µL, were also added. The cells were first incubated for 5 minutes at room temperature in the dark before being analyzed using the Annexin V-FITC binding flow cytometric technique (Ex = 488 nm; Em = 530 nm) with a FITC signal detector (typically FL1) and PI staining with a phycoerythrin emission signal detector (typically FL2). Before exposing adherent cells to Annexin V-FITC, we gently trypsinized and gave them a single wash in serum-containing medium (A.3–5). Cell synchronisation is done using Double-thymidine synchronization method and the used Media is double modifed eagle media (DMEM).
# Cell cycle analysis and detection of apoptosis
# Annexin V-FITC apoptosis assay
# Cell apoptosis were analyzed by the Annexin V-FITC Apoptosis Detection Kit (Bio Vision Research Products, USA). Thereafter, 1-5 x 10^5 cells were collected by centrifugation and resuspend in 500 μl of 1X Binding Buffer. Added 5 μl of Annexin V-FITC and 5 μl of propidium iodide (PI 50mg/ml, optional.). The cells incubated at room temperature for 5 min in the dark; Analyzed by Annexin V-FITC binding flow cytometric method (Ex = 488 nm; Em = 530 nm) using FITC signal detector (usually FL1) and PI staining by the phycoerythrin emission signal detector (usually FL2). For adherent cells, we gently trypsinized and washed cells once with serum-containing media before incubation with Annexin V-FITC (A.3-5). […]
# [12] = system: normal cell line WI 38; assay: MTT cytotoxicity assay on normal cells; assay type: cell-based; conditions: Homo sapiens; normal cell line WI 38, MTT assay, ± SEM; read-out: IC50 W138 normal cell line (µM ± SEM)
# Description: After 24 h of culture incubation and supernatants discarded. […] Each test should include a blank containing complete medium without cells. […] Add reconstituted MTT in an amount equal to 10% of the culture medium volume. […] Spectrophotometrically absorbance was measured at a wavelength of 570 nm. […] Results from all experiments were recorded and the percentage of viable cells was calculated.
# [13] = biological target: T1, topoisomerase IIβ (Homo sapiens, UniProt Q02880); assay: Topoisomerase II inhibition, human DNA topoisomerase Elisa kit; assay type: biochemical
# T1 construct: purchased
# Description: (§2) Two folds of serial dilution was accomplished after standards and the tested compounds were dissolved in sample diluent. Horseradish peroxidase (HRP-avidin) and biotin-conjugated antibody were diluted 10 times each. Each well received 100 µL of each concentration of the standard or test chemicals, which were then added and incubated at 37 °C for 60 min. […] The microtiter plate was rinsed three times and given room to aspirate. After that, the plate was incubated at 37 °C for 60 min with 100 µL of HRP-avidin solution added to each well. After that, the plate was aspirated and cleaned 5 times. Each well received 90 µL of TMB substrate, and the plate was incubated for 30 min. at 37 °C in a light-protected environment. Finally, stop solution (50 µL) was loaded, and within 5 min, the absorbance at 450 nm was measured spectrophotometrically.
# (§3) Topoisomerase enzyme assay
# (§4) Topoisomerase I and II inhibitory activity […]
# (§5) topoisomerase IIβ inhibitory activity utilizing the human DNA topoisomerase Elisa kit.
# (§6) Standards and the tested compound were dissolved in sample diluent and 2 folds serial dilution was achieved. Biotin-conjugated antibody and avidin conjugated Horseradish Peroxidase (HRP-avidin) were diluted to 10 folds. 100 μL of each concentration of standard or test compound were added to each well. Incubate at 37 °C for 1 h. The liquid in each well was removed. 10 0 μL of Biotin-conjugated antibody solution was added to each well followed by incubation for 1 h at 37 °C. The microtiter plate was allowed to aspirate and washed 3 times. 100 μL of avidin conjugated Horseradish Peroxidase (HRP -avidin) solution was added to each well and the plate was incubated for 1 h at 37 °C. The plate was aspirated and washed 5 times. 90 μL of TMB substrate were added to each well and the plate was incubated for 30 min at 37 °C and protected from light. 50 μL stop so lution was added. The absorbance was measured spectrophotometrically within 5 min at 450 nm .
# [14] = system: human melanoma LOX IMVI; assay: cells
# [15] = system: melanoma LOX IMVI cell line; assay: Cell cycle analysis, propidium iodide flow cytometry; assay type: cell-based, human; conditions: LOX IMVI treated at IC50 concentration
# Description: The effect of compound 3i on cell cycle progression of LOX IMVI cell line was evaluated using Propidium Iodide Flow Cytometry Kit to measure the DNA content according to the reported protocols. The LOX IMVI cells used in this work were obtained from the American Type Culture Collection. Cells were cultured in DMEM (Invitrogen/Life Technologies) supplemented with 10% FBS (Hyclone), 10 µg/ml insulin (Sigma), and 1% penicillin-streptomycin. The remaining chemicals and reagents were all from Sigma or Invitrogen. Growth media was removed, cells washed with warm PBS and aspirated. Adhered cells were detached from media by addition of 5 ml 10% trypsin/EDTA and incubated 2 min in the incubator. The suspended cells harvested, aspirated to a falcon tube, centrifuged at 2000 rpm for 5 min. Cell count performed after suspending the cells into a fresh media and stained with trypan blue, counted and used for preparation of the appropriate number of cells.
# [16] = system: human melanoma LOX IMVI; conditions: read-out: In vitro cytotoxicity (IC50) LOX IMVI (µM ± SEM), MTT assay
# [17] = system: A498 renal cancer cell line; conditions: read-out: In vitro cytotoxicity (IC50) A498 cell line (µM ± SEM), A498, MTT assay
# [18] = biological target: T2, topoisomerase Iα (Homo sapiens, UniProt P11387); assay: Topoisomerase I inhibition, human DNA topoisomerase Elisa kit; assay type: biochemical; conditions: ± SEM
# T2 construct: purchased
# T2 sequence (P11387 1-765): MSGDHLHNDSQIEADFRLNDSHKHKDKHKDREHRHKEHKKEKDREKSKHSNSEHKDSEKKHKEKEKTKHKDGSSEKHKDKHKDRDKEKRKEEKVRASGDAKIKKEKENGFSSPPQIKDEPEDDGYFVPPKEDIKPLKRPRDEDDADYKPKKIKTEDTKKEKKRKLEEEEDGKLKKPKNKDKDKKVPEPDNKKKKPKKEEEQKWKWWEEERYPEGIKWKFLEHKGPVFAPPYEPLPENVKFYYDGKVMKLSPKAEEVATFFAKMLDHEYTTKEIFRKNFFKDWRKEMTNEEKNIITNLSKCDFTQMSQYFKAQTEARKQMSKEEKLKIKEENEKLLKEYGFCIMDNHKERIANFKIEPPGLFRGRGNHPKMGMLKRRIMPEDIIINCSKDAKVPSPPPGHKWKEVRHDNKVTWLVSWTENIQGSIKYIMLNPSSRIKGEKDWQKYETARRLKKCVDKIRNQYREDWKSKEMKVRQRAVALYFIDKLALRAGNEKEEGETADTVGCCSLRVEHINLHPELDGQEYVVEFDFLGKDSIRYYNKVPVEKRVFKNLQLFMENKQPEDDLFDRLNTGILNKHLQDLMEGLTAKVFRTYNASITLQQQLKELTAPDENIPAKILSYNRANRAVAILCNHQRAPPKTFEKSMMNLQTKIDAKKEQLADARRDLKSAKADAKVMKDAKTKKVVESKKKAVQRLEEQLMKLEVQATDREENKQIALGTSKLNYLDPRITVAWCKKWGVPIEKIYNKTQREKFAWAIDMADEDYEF
# Description: as §2, §3, §4, §5, §6
# [19] = system: MCF-7 breast adenocarcinoma cell line; design: method as in PMID 24287557; conditions: cited from earlier work
# [20] = system: MDA-MB-231 breast adenocarcinoma; design: method as in PMID 24287557; conditions: cited from earlier work
# [21] = system: A549 lung cancer cell line; design: method as in PMID 27614408; conditions: cited from earlier work
# T1 sequence (Q02880 whole entry): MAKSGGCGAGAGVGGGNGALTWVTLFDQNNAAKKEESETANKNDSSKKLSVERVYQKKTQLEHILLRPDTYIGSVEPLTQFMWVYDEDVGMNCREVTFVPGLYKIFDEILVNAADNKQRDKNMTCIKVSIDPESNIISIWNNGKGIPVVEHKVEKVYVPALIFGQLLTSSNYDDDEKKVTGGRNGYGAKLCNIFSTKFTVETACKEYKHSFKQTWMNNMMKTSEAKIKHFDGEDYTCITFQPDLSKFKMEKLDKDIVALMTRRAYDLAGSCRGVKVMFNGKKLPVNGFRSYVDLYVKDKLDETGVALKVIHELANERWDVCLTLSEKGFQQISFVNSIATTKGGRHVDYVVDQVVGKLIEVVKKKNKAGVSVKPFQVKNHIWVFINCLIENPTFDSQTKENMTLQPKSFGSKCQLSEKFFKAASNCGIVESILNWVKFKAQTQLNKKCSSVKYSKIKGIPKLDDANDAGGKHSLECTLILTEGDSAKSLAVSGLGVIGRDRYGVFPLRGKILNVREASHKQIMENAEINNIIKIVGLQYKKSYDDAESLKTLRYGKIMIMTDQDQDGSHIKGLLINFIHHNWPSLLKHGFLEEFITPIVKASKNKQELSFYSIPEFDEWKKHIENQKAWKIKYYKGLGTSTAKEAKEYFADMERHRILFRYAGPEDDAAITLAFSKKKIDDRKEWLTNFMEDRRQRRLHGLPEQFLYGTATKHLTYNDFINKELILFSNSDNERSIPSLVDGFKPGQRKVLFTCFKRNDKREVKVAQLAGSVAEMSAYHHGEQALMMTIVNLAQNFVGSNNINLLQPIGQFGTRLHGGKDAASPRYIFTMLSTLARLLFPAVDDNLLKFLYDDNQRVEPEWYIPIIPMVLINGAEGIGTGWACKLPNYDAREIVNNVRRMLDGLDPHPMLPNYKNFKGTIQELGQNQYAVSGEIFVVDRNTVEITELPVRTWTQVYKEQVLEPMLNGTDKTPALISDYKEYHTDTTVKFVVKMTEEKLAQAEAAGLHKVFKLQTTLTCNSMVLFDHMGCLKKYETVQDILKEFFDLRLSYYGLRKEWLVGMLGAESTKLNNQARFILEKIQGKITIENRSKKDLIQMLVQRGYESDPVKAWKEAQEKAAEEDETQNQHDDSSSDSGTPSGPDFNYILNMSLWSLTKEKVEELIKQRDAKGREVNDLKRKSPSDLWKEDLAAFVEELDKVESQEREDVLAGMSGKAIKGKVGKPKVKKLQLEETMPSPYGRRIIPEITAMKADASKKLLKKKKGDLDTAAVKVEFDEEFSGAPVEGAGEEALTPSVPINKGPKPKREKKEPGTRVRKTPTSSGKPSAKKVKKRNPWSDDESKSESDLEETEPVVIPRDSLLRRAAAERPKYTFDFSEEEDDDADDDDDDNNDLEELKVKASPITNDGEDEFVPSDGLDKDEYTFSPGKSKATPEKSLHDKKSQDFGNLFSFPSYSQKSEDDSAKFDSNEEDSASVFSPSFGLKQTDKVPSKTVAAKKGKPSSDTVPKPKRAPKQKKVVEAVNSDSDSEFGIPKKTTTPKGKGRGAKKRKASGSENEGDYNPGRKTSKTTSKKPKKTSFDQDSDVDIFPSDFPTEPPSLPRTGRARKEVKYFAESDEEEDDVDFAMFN
smiles,measurement,setting,value
O=C(CN1C(=O)S/C(=C\c2cc(-c3ccc(Cl)cc3)c3[nH]c4ccccc4c3c2)C1=O)N1CCOCC1 [VI],IC50,[1],0.97 ± 0.13 µM
"O=C(O)c1cn(C2CC2)c2cc(N3CCNCC3)c(F)cc2c1=O [Ciprofloxacin, reference compound]",MIC,[2],0.04 µM
same,MIC,[3],0.06 µM
same,MIC,[4],5.49 µM
same,effect on proliferation of Jurkat cells,[5]; concentration of 25 µg/mL,inhibit the proliferation
same,apoptosis in Jurkat cells,[5]; doses higher than 80 µg/mL,induced apoptosis
same,MIC,[6]; Gram –ve strain,0.10 µM
same,MIC,"[6]; Klebsiella pneumoniae, ATCC10, Gram –ve strain",0.1 µM
"COc1cccc2c1C(=O)c1c(O)c3c(c(O)c1C2=O)C[C@@](O)(C(=O)CO)C[C@@H]3O[C@H]1C[C@H](N)[C@H](O)[C@H](C)O1 [Doxorubicin, reference compound]",viability at 0.4 µM,[7]; A498,64.5%
same,viability at 1.6 µM,[7]; A498,55.3%
same,viability at 25 µM,[7]; A498,37.6%
same,viability at 100 µM,[7]; A498,26.6%
same,IC50,"[7]; A498, read-out: In vitro cytotoxicity (IC50) A498 cell line (µM ± SEM)",3.59 ± 0.2 µM
same,PARP-1 OD,[8],0.38
same,Caspace-3 Optical density (OD),[9],5.67
same,Bax OD,[10],6.56
same,Apoptosis Early,[11],1.94%
same,Apoptosis Late,[11],28.53%
same,Apoptosis Total,[11],46.29%
same,Necrosis,[11],15.82%
same,IC50,[12],18.1 ± 0.98 µM
same,IC50,[13],6.49 ± 0.35 µM
same,viability at 0.4 µM,[14],70.4%
same,viability at 1.6 µM,[14],58.2%
same,viability at 25 µM,[14],42.6%
same,viability at 100 µM,[14],30.4%
same,IC50,[14]; read-out: In vitro cytotoxicity (IC50) LOX IMVI (µM ± SEM),7.03 ± 0.4 µM
same,%G0-G1 DNA content,[15],37.85%
same,%G2/M DNA content,[15],5.94%
same,%Pre-G1 DNA content,[15],46.29%
same,%S DNA content,[15],56.21%
"N.N.[Cl][Pt][Cl] [Cisplatin, reference compound]",IC50,[16],5.07 ± 0.29 µM
same,IC50,"[13]; ± SEM, read-out: Topoisomerase II IC50 µM ± SEM",11.3 ± 0.62 µM
same,IC50,[17],7.92 ± 0.45 µM
same,IC50,[18],5.71 ± 0.31 µM
Cc1ccc(C(=O)CN2C(=O)S/C(=C\C3=C(Cl)c4cc(C)c(C)cc4CCC3)C2=O)cc1 [IV],IC50,[19],1.91 ± 0.03 µM
same,IC50,[20],13.39 ± 0.04 µM
Cn1c(/C=C2\SC(=O)N(CC(=O)Nc3nc(-c4ccccc4)cs3)C2=O)nc2ccccc21 [V],IC50,[21],11.5 ± 1.46 µM
